EC50 data for 24 compounds are collected here from patent US10669252B2, “Benzazepine derivative, preparation method, pharmaceutical composition and use thereof” (SHANGHAI DE NOVO PHARMATECH CO., LTD., priority 2016, dated 2020).

This assay deals with T1, TLR8 (Homo sapiens, UniProt Q9NR97).
T1 construct: host or cells: HEK293 (HEK-BLUE-hTLR8)
T1 sequence (Q9NR97 27-1041): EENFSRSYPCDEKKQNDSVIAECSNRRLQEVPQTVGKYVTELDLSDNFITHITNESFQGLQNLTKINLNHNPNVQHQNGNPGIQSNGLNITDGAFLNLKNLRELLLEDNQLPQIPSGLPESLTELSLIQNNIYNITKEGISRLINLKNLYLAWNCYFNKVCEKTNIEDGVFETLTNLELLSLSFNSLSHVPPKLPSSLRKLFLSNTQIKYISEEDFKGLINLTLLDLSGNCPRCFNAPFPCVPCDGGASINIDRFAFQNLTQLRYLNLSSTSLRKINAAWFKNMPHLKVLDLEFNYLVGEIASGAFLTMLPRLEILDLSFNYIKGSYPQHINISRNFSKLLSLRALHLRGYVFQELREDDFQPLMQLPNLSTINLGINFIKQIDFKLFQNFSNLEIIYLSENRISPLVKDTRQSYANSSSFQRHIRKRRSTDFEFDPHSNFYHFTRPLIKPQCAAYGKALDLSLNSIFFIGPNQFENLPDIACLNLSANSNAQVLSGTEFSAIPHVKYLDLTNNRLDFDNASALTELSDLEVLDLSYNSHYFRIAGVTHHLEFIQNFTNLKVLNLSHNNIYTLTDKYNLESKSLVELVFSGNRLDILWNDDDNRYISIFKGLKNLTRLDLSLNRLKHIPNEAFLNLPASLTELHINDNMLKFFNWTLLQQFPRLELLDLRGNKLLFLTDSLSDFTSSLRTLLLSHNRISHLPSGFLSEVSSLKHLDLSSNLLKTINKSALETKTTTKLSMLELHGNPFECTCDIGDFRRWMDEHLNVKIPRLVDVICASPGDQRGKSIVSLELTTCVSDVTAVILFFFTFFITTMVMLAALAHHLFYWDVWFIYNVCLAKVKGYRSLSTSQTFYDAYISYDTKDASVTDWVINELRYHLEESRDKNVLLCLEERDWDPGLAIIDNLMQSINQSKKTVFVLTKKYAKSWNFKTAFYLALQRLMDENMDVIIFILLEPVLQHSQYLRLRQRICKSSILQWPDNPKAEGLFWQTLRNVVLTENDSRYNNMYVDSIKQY
In words: TLR8 cell based assay (HEK-BLUE-hTLR8, SEAP reporter linked to NF-κB activation). The note with it: HEK-BLUE-hTLR8 cells. On the procedure:
In this assay, the bioactivity of compound of formula Iw as measured using a cell based assay. The assay was performed in human embryonic kidney cells (HEK293) expressing TLR8 or other TLR family members such as TLR4, TLR7 and TLR9 (for selectivity screens). The activity of specific TLR agonists was assessed using the secretory embryonic alkaline phosphatase (SEAP) reporter gene that is linked to NF-κB activation in response to TLR stimulation. The SEAP activity was measured using the Quanti-Blue substrate (InvivoGen) after TLR agonist treatment.
The detailed experimental method is as follow:
HEK-BLUE-hTLR8 cell line was purchased from InvivoGen. The cells were cultured in Dulbecco's Modified Eagle's Media containing 4.5 g/L […] (Sigma-Aldrich) and 10% FBS. The cells were cultured at 37° C., 95% humidity and 5% CO2.
Test concentrations of the compounds ranged from 0.5 nM to 15 μM with 10 points. A known TLR8 agonist was added as positive control and 1 μl of DMSO was added as negative control.
The cells were prepared as follows: The cells were removed from the incubator and growth medium was discarded. The cells were gently rinsed with pre-warmed 10 ml PBS for a T-150 flask. 12 ml pre-warmed growth medium was added, and the cells were detached by tapping the flask. Cell clumps were dissociated by gently pipetting up and down. The cells were counted. Single cell suspension was prepared at 200,000 cells per ml in growth medium and 200 μl of the cell suspension (40,000 cells per well) were immediately added to each well of the plate. The final DMSO concentration of each well was 0.5%.
The cells were cultured and treated with the compounds at 37° C., 5% CO2 for 24 h.
20 μL of the supernatant of each well were added to 180 μL of QUANTI-Blue, and the plates were incubated at 37° C. for 1.5 hour. Optical density was measured using a spectrophotometer at 650 nm (OD data). Activivation was calculated by using the equation below: Activivation %=(Compound OD mean value−DMSO OD mean value)/(positive control OD mean value−DMSO OD mean value)×100
The data were analyzed using the GraphPad to get EC50 values and fitting dose response curves of the compounds.

Setting [1] is: 24 h treatment, SEAP/QUANTI-Blue readout.

Bounds are passed on as bounds.

One may read the EC50 as the concentration that produces a half-maximal response. Low readings indicate a more potent agent, high ones a less potent agent. Under setting [1], `CCCN(CCC)C(=O)C1=Cc2ccc(-c3ccc4c(=O)[nH]ccc4c3)cc2N=C(N)C1` [Compound 1-1-1] gave an EC50 of 1000 to 10000 nM.
Compound `CCCN(CCC)C(=O)C1=Cc2ccc(-c3ccc4c(=O)n(CC)c(C)cc4c3)cc2N=C(N)C1` [Compound 1-2-2] yielded an EC50 under setting [1] of 100 to 1000 nM.
As for `CCCN(CCC)C(=O)C1=Cc2ccc(-c3ccc4c(=O)n(CC)ccc4c3)cc2N=C(N)C1` [Compound 1-2-3], the EC50 under setting [1] was 100 to 1000 nM.
As to `CCCN(CCC)C(=O)C1=Cc2ccc(-c3ccc4c(=O)n(CC(C)C)ccc4c3)cc2N=C(N)C1` [Compound 1-2-5], under setting [1], the EC50 is 100 to 1000 nM.
With `CCCN(CCC)C(=O)C1=Cc2ccc(-c3ccc4c(=O)n(CCO)ccc4c3)cc2N=C(N)C1` [Compound 1-2-6], the concentration giving a half-maximal response (EC50) under setting [1] was less than 100 nM.
`CCCN(CCC)C(=O)C1=Cc2ccc(-c3ccc4c(=O)n(CCCO)ccc4c3)cc2N=C(N)C1` [Compound 1-2-7] returned a half-maximal effective concentration (EC50) under setting [1] of 100 to 1000 nM.
Consider `CCCN(CCC)C(=O)C1=Cc2ccc(-c3ccc4c(=O)n(CCP(C)(=O)OCC)ccc4c3)cc2N=C(N)C1` (centres unmarked) [Compound 1-2-11], for which the EC50 under setting [1] is less than 100 nM.
`CCCN(CCC)C(=O)C1=Cc2ccc(-c3ccc4c(=O)n(CCN(C)C)ccc4c3)cc2N=C(N)C1` [Compound 1-2-12]: under setting [1], the EC50 fell in the range of 100 to 1000 nM.
The compound `CCCN(CCC)C(=O)C1=Cc2ccc(-c3ccc4c(=O)n(CCNS(N)(=O)=O)ccc4c3)cc2N=C(N)C1` [Compound 1-2-20] displayed an EC50 under setting [1] of 100 to 1000 nM.
Regarding `CCCN(CCC)C(=O)C1=Cc2ccc(-c3ccc4c(=O)n(CC(=O)N(C)C)ccc4c3)cc2N=C(N)C1` [Compound 1-2-24], the 50% effective concentration (EC50) under setting [1] is less than 100 nM.
Compound `CCCN(CCC)C(=O)C1=Cc2ccc(-c3ccc4c(=O)n(CC(=O)NCC)ccc4c3)cc2N=C(N)C1` [Compound 1-2-25] showed a concentration for a half-maximal effect (EC50) under setting [1] of less than 100 nM.
Under setting [1], `CCCN(CCC)C(=O)C1=Cc2ccc(-c3ccc4c(=O)n(CC(=O)N5CCCC5)ccc4c3)cc2N=C(N)C1` [Compound 1-2-26] displayed an EC50 of less than 100 nM.
As for `CCCCn1ccc2cc(-c3ccc4c(c3)N=C(N)CC(C(=O)N(CCC)CCC)=C4)ccc2c1=O` [Compound 1-2-27], under setting [1], the EC50 was 100 to 1000 nM.
Compound `CCCN(CCC)C(=O)C1=Cc2ccc(-c3ccc4c(=O)n(Cc5ccno5)ccc4c3)cc2N=C(N)C1` [Compound 1-2-29] registered an EC50 under setting [1] of 100 to 1000 nM.
Consider `CCCN(CCC)C(=O)C1=Cc2ccc(-c3ccc4c(=O)n(Cc5nnc(C)o5)ccc4c3)cc2N=C(N)C1` [Compound 1-2-30], for which the EC50 under setting [1] was less than 100 nM.
`CCCN(CCC)C(=O)C1=Cc2ccc(-c3ccc4c(=O)n(Cc5cc[nH]n5)ccc4c3)cc2N=C(N)C1` [Compound 1-2-34]: under setting [1], the EC50 is less than 100 nM.
The same measure, in the same setting: the result for `CCCN(CCC)C(=O)C1=Cc2ccc(-c3ccc4c(=O)n(CCn5ccnc5)ccc4c3)cc2N=C(N)C1` [Compound 1-2-37] reads less than 100 nM; that for `CCCN(CCC)C(=O)C1=Cc2ccc(-c3ccc4c(=O)n(Cc5nnn[nH]5)ccc4c3)cc2N=C(N)C1` [Compound 1-2-38], 1000 to 10000 nM.
Take `CCCN(CCC)C(=O)C1=Cc2ccc(-c3ccc4c(=O)n(Cc5nnn(C)n5)ccc4c3)cc2N=C(N)C1` [Compound 1-2-39]: the concentration giving a half-maximal response (EC50) is less than 100 nM under setting [1] and less than 10 nM (bound stated).
Regarding `CCCN(CCC)C(=O)C1=Cc2ccc(-c3ccc4c(=O)n(Cc5ncnn5C)ccc4c3)cc2N=C(N)C1` [Compound 1-2-41], the half-maximal effective concentration (EC50) is less than 100 nM under setting [1] and less than 10 nM (bound stated).
As for `CCCN(CCC)C(=O)C1=Cc2ccc(-c3ccc4c(=O)n(CC(=O)O)ccc4c3)cc2N=C(N)C1` [Compound 1-2-42], under setting [1], the EC50 was in the range of 1000 to 10000 nM.
Consider `CCCN(CCC)C(=O)C1=Cc2ccc(-c3ccc4c(=O)n(Cc5cnccn5)ccc4c3)cc2N=C(N)C1` [Compound 1-2-44], for which the EC50 under setting [1] was less than 100 nM.
`CCCN(CCC)C(=O)C1=Cc2ccc(-c3ccc4c(=O)n(Cc5nc(OC)cc(OC)n5)ccc4c3)cc2N=C(N)C1` [Compound 1-2-46]: the EC50 under setting [1] was less than 100 nM.
Under setting [1], `CCCN(CCC)C(=O)C1=Cc2ccc(-c3ccc4c(=O)n(CCc5cnccn5)ccc4c3)cc2N=C(N)C1` [Compound 1-2-47] yielded a concentration giving a half-maximal response (EC50) of 100 to 1000 nM.
